BigSolDB 2.1

c1ccc2c(c1)sc1ccccc12
solubility (mole fraction)
Settings | in acetonitrile | in methanol
278.15 K | 0.00126 | 0.00454
283.15 K | 0.00163 | 0.00611
288.65 K | 0.00192 | 0.00845
293.15 K | 0.00242 | 0.0118
298.15 K | 0.0029 | 0.0152
303.15 K | 0.00331 | 0.0189
308.15 K | 0.00406 | 0.0241
313.15 K | 0.00478 | 0.0321
318.15 K | 0.0056 | 0.0402
323.15 K | 0.00668 | 0.0506
328.15 K | 0.00782 | 0.0639
333.15 K | 0.00917 | 0.0839
